One data set relates to Leishmania. Details: method as in PMID 15793164. To be noted: oral administration in mice for 30 days; cited from earlier work.
For data set [1], the system named is Trypanosoma brucei rhodesiense STIB 900. The data set is described as follows: In vitro assay for Trypanosoma brucei rhodesiense (resazurin). In kind it is cell-based. How it is done:
Trypanosoma brucei rhodesiense STIB 900 strain, isolated in 1982 from a human patient in Tanzania and, after several mouse passages, cloned and adapted to axenic culture conditions, was used in this assay. Minimum essential medium (50 μL) supplemented with 25 mM HEPES, 1 g/L additional glucose, 1% MEM non-essential amino acids (100×), 0.2 mM 2-mercaptoethanol, 1 mM Na-pyruvate, and 15% heat inactivated horse serum was added to each well of a 96 well microtiter plate. Serial drug dilutions of seven 3-fold dilution steps covering a range from 90 to 0.123 μg/mL were prepared, and then 4 × 10^4 blood stream forms of T. b. rhodesiense STIB 900 in 50 μL were added to each well and the plate was incubated at 37 °C under a 5% CO2 atmosphere for 72 h. Resazurin solution (resazurin, 12.5 mg in 100 mL double-distilled water) (10 μL) was then added to each well and incubated for a further 2–4 h. At the end of the assay, the plates were read with a Spectramax Gemini XS microplate fluorometer (Molecular Devices Cooperation, Sunnyvale, CA, USA) using an excitation wavelength of 536 nm and an emission wavelength of 588 nm. Data were analyzed using the microplate reader software Softmax Pro (Molecular Devices Cooperation, Sunnyvale, CA, USA). Melarsoprol was used as standard drug.
(In general: Alamar Blue is a resazurin reagent that responds to reducing activity.)

In data set [2] the test system is T. cruzi Tulahuen strain C2C4. The data set is described as follows: In vitro assay for Trypanosoma cruzi in L-6 cells (β-galactosidase/CPRG). The conditions noted are these: Trypanosoma cruzi, L6; Tulahuen C2C4 in L-6 cells, 96 h; highest concentration tested 90 μg/mL; means of two determinations ± deviation. In kind it is cell-based. The method, then:
Rat skeletal myoblasts (L-6 cells) were seeded in 96 well microtiter plates (2000 cells/well) in 100 μL RPMI 1640 medium with 10% FBS and 2 mM L-glutamine for 24 h. After that, the medium was removed and replaced by 100 μL per well containing 5000 trypomastigote forms of T. cruzi Tulahuen strain C2C4, containing the β-galactosidase (Lac Z) gene. The medium was removed from the wells after 48 h, and replaced with 100 μL fresh medium with or without a serial drug dilution of seven 3-fold dilution steps covering a range from 90 to 0.123 μg/mL. After 96 h of incubation, the plates were inspected under an inverted microscope to assure growth of the controls and sterility, after which the substrate CPRG/Nonidet ([…]) was added to all wells. A color reaction developed within 2–6 h and could be read photometrically at 540 nm. Data were transferred into the graphic program Softmax Pro (Molecular Devices Cooperation, Sunnyvale, CA, USA) and the IC50 values were calculated from the sigmoidal dose response curves. Benznidazole was the reference drug.

Data set [3] concerns L. donovani (strain MHOM/ET/67/L82) amastigotes. The data set is described as follows: In vitro assay for Leishmania donovani axenic amastigotes (resazurin). In kind it is cell-based. The conditions noted are these: axenic amastigotes, 72 h, means of two determinations ± deviation, read-out: IC50 Leishmania donovani. The method, then: Amastigotes of L. donovani (strain MHOM/ET/67/L82) were grown in axenic culture at 37 °C in SM medium at pH 5.4 supplemented with 10% heat-inactivated FBS under an atmosphere of 5% CO2. Culture medium (100 μL) with 10^5 amastigotes from axenic culture with or without a serial drug dilution was seeded in 96 well microtiter plates. Serial drug was prepared covering a range of dilutions from 90 to 0.123 μg/mL. After 72 h of incubation, the plates were inspected under an inverted microscope to assure growth of the controls and sterile conditions. Subsequently, 10 μL resazurin solution (12.5 mg resazurin dissolved in 100 mL double-distilled water) was added to each well and the plates were incubated for another 2 h. The plates were then read with a Spectramax Gemini XS microplate fluorometer (Molecular Devices Cooperation, Sunnyvale, CA, USA) using an excitation wavelength of 536 nm and an emission wavelength of 588 nm. Data were analyzed using the software Softmax Pro (Molecular Devices Cooperation, Sunnyvale, CA, USA). A decrease of fluorescence (=inhibition) was expressed as percentage of the fluorescence of control cultures and plotted against the drug concentrations. From the sigmoidal inhibition curves, the IC50 values were calculated. Miltefosine was used as a reference drug.

A further data set concerns P. falciparum K1 strain. Briefly: In vitro assay for Plasmodium falciparum ([3H]-hypoxanthine incorporation). In kind it is cell-based. To be noted: K1 strain (chloroquine- and pyrimethamine-resistant), erythrocytic stages, means of two determinations ± deviation, read-out: IC50 Plasmodium falciparum. How it is done:
Activity against the erythrocytic stages of P. falciparum was determined using an in vitro modified [^3H]-hypoxanthine incorporation assay, using the chloroquine- and pyrimethamine-resistant K1 strain [68]. Compounds were dissolved in DMSO at 10 mg/mL and further diluted in medium before added to parasite cultures incubated in RPMI 1640 medium without hypoxanthine, supplemented with HEPES (5.94 g/l), NaHCO3 (2.1 g/L), neomycin (100 U/mL), AlbumaxR (5 g/L), and washed human red cells A+ at 2.5% haematocrit (0.3% parasitaemia). Serial drug dilutions of seven 3-fold dilution steps covering a range from 90 to 0.123 μg/mL were prepared. The 96 well plates were incubated in a humidified atmosphere at 37 °C; 4% CO2, 3% O2, 93% N2. After 48 h 50 μL of ^3H-hypoxanthine (=0.5 μCi) was added to each well of the plate. The plates were incubated for a further 24 h under the same conditions. The plates were then harvested with a Betaplate™ cell harvester (Wallac, Zurich, Switzerland), and the red blood cells transferred onto a glass fiber filter then washed with distilled water. The dried filters were inserted into a plastic foil with 10 mL of scintillation fluid, and counted in a Betaplate™ liquid scintillation counter (Wallac, Zurich, Switzerland). […] IC50 values were calculated from the sigmoidal inhibition curves using Microsoft Excel. Chloroquine was used as positive control drug.

Data set [4] is described as follows: In vitro assay for cytotoxicity on mammalian cells (resazurin). In kind it is cell-based, rat. To be noted: rat skeletal myoblasts, 72 h, means of two determinations ± deviation, read-out: IC50 Cytotoxicity L6 cells. The method, then: Assays were performed in 96 well microtiter plates (4 × 10^4 L6 cells/well), each well containing 100 μL of RPMI 1640 medium supplemented with 1% L-glutamine (200 mM) and 10% FBS. L6 cells are a primary cell line derived from rat skeletal myoblasts. Serial drug dilutions of seven 3-fold dilution steps covering a range from 90 to 0.123 μg/mL were prepared. After 72 h of incubation, the plates were inspected under an inverted microscope to assure growth of the controls and sterile conditions. Resazurin solution (10 μL) (12.5 mg resazurin in 100 mL double-distilled water) was then added to each well and the plates incubated for another 2 h. The plates were then read with a Spectramax Gemini XS microplate fluorometer (Molecular Devices Cooperation, Sunnyvale, CA, USA) using an excitation wavelength of 536 nm and an emission wavelength of 588 nm. Data were analyzed using the microplate reader software Softmax Pro (Molecular Devices Cooperation, Sunnyvale, CA, USA). From the sigmoidal inhibition curves, the IC50 values were calculated. Podophyllotoxin was the positive control.

Another data set relates to T. b. brucei. Further details: method as in PMID 29778466. To be noted: blood stream trypomastigotes cultures; AnTart 1 strain, wild type; cited from earlier work.
A further data set deals with T. cruzi epimastigotes. Further details: method as in doi:10.1080/10412905.2013.820669. To be noted: cited from earlier work.
The next data set relates to T. cruzi amastigotes. Details: method as in doi:10.1080/10412905.2013.820669. To be noted: cited from earlier work.
The subject of another data set is T. evansi. Details: method as in PMID 26773165. To be noted: cited from earlier work.

Converted amounts (≈) assume the structure as drawn. Read-outs that look alike come from different tables or passages of the source. Bounds are passed on as bounds.

Take `CNC[C@H](O)[C@@H](O)[C@H](O)[C@H](O)CO.[O]=[Sb](=[O])[OH]` [glucantime]: the “reduction of the parasite burden” value in the data set with Leishmania is 100%.

The IC50 is the concentration needed to halve the response being measured. With `CC1=CCC2CC1C2(C)C` (stereo not drawn) [α-Pinene], the concentration for half-maximal inhibition (IC50) was 0.42 ± 0.24 µg/mL (≈ 3.08 µM) in data set [1] (Trypanosoma brucei, 72 h, STIB 900 blood stream forms, 72 h; means of two independent determinations ± deviation from the mean; read-out: IC50 Trypanosoma brucei rhodesiense); more than 90 µg/mL in data set [2]; 81.9 ± 9 µg/mL (≈ 601 µM) in data set [3]; 10.7 ± 1.2 µg/mL (≈ 78.5 µM) in the data set with P. falciparum K1 strain. Besides, in [4] (L6 cells (rat skeletal myoblasts)), the IC50 at 72 h turned out to be 87.8 ± 3 µg/mL (≈ 644 µM). The “IC50 T. b. brucei” value in the data set on T. b. brucei was 2.9 µg/mL (≈ 21.3 µM). For the same compound, the “IC50 T. cruzi epimastigotes” value in the data set with T. cruzi epimastigotes is 2.74 µg/mL (≈ 20.1 µM). Further, the “IC50 T. cruzi amastigotes” value in the data set with T. cruzi amastigotes was 1.92 µg/mL (≈ 14.1 µM).

For `CC1=CC=C(C(C)C)CC1` [α-Terpinene], the IC50 in data set [1] (Trypanosoma brucei; STIB 900 blood stream forms, 72 h; means of two independent determinations ± deviation from the mean; read-out: IC50 Trypanosoma brucei rhodesiense) worked out at 3.1 ± 1.6 µg/mL (≈ 22.8 µM); in data set [2], 49.1 ± 7.3 µg/mL (≈ 360 µM); in [3], 10.5 ± 1.7 µg/mL (≈ 77.1 µM); in the data set on P. falciparum K1 strain it was 3.7 ± 1.5 µg/mL (≈ 27.2 µM); in data set [4], 84.7 ± 4.3 µg/mL (≈ 622 µM). For the same compound, the “animal longevity of T. evansi-infected mice (in words)” value in the data set on T. evansi is given as “extend animal longevity”.

The record behind these values is article PMC6930659, “Antiprotozoal Activity of Turkish Origanum onites Essential Oil and Its Components” (Molecules, 2019).
